Test [1] deals with T1, recombinant rhesus mineralocorticoid receptor (Macaca mulatta, UniProt A0A5F8ATS5).
T1 construct: made in house; host or cells: insect cells infected with recombinant baculovirus; clarified cell lysate used
T1 sequence (A0A5F8ATS5 1-984): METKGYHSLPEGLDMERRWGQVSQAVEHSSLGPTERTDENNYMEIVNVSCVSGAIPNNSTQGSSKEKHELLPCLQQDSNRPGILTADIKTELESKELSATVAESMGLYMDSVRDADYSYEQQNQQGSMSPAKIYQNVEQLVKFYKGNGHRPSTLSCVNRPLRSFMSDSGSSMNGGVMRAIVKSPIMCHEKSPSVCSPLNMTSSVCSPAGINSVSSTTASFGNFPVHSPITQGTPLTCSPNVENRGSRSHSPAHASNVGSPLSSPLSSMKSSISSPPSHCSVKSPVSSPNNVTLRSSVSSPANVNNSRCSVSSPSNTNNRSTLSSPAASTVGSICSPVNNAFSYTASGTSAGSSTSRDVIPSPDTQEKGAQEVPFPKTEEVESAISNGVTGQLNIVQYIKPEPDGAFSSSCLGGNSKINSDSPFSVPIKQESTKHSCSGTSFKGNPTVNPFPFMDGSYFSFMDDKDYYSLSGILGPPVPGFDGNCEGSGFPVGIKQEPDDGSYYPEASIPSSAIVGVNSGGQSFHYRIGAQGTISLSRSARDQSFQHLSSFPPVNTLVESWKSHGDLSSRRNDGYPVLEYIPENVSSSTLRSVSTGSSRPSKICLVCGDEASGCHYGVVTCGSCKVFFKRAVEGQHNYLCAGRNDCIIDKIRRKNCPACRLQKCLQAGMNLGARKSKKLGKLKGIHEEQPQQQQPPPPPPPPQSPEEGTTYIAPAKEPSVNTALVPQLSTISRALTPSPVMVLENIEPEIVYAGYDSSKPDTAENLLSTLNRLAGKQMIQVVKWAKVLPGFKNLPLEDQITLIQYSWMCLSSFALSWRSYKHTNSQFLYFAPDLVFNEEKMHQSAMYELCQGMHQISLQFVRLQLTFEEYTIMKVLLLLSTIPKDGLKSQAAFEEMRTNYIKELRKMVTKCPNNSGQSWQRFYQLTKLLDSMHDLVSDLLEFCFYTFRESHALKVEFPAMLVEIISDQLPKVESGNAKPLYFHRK
The test can be described thus: Mineralocorticoid receptor radioligand ([3H]-aldosterone) filter binding assay. The conditions noted are these: displacement of [3H]-aldosterone, insect cell lysate, 20° C., read-out: Mineralocorticoid receptor binding affinity Ki. As for the experimental part: Measurement of Mineralocorticoid Receptor Binding Affinity
The binding affinity of compounds for the mineralocorticoid receptor was determined by measuring their ability to prevent binding of radiolabeled aldosterone to recombinant rhesus mineralocorticoid receptor in a traditional filter binding assay protocol.
Rhesus mineralocorticoid receptor cDNA was cloned from a cDNA library using and used to prepare a recombinant baculovirus encoding the rhesus mineralocorticoid receptor coding sequence by standard molecular biological and cell biological methods. […] Cells were collected and lysed. The lysates were clarified by centrifugation and stored at −80 C until use in the radioligand binding assay.
The assays were carried out in 20 mM Hepes, 10 mM Na2MoO4, 10 mM 2-mercaptoethanol, 157 mM sucrose, and 3.7 mM CHAPS. [^3H]-Aldosterone (1 mCi/ml, 70-100 Ci/mmol) was purchased from Perkin Elmer (NET419). Test compounds were dissolved in DMSO and diluted in DMSO to 50 times the desired final concentrations for 3-fold serial dilution dose response curves. A working stock solution of [^3H]-aldosterone was prepared by dilution of the commercial stock to 0.083 μM in assay buffer. The insect cell lysate containing rhesus mineralocorticoid receptor was thawed and diluted to 0.7 mg protein/mL. Assay were started by combining 20 μL of test compound solution, 920 μL of diluted insect cell lysate, and 60 μL of [^3H]-aldosterone working solution in 2-mL 96-well polypropylene square well plates (USA Scientific) at 20° C. The mixture was incubated for 3 hr with continuous agitation on a platform shaker. The mixture was then filtered through 96-well GF/B filter plates (Packard) that had been previously treated with a solution of polyethylenimine (Sigma, P-3143). The filter plate was washed 3 times with 0.5 mL of 50 mM Tris-HCl, pH 7.4 and then dried overnight at 37° C. in a vacuum oven. The bottom of the plate was sealed and 40 μL of Microscint-20 (Packard, 6013621) was added to each well before counting radioactivity with a Topcount plate reader. Non-specific radioligand binding was determined by adding non-radiolabeled aldosterone (0.5 mM in DMSO) to the assay mixture to a final concentration of 10 μM in place of test compound. IC50 and Ki values were determined using a four parameter logistic fit using a customized assay data analyzer software package.
Background: Loss of bound radioactivity is the signal in a displacement assay; it reports binding, not function.

For test [2] the following is noted: in combination with standard CHF therapy, patients suffering from advanced CHF; cited from earlier work.

By Ki is commonly meant the equilibrium dissociation constant of an inhibitor or competing ligand from its target. Consider `Nc1cccc(Cn2ccnc2C(c2ccccc2)c2ccccc2)c1` [Compound 1-15, 3-{[2-(diphenylmethyl)-1H-imidazol-1-yl]methyl}aniline], for which the Ki in test [1] was determined as 633 nM.
With `O=[N+]([O-])c1cccc(Cn2ccnc2C(c2ccccc2)c2ccccc2)c1` [Compound 1-14, 2-(diphenylmethyl)-1-(3-nitrobenzyl)-1H-imidazole], the Ki in test [1] was 587 nM.
Same read-out and setting: the value for `Cc1cccc(Cn2ccnc2C(c2ccccc2)c2ccccc2)c1` [Compound 1-13, 2-(diphenylmethyl)-1-(3-methylbenzyl)-1H-imidazole] was 134 nM.
Turning to `CC(=O)S[C@@H]1CC2=CC(=O)CC[C@]2(C)[C@H]2CC[C@@]3(C)[C@@H](CC[C@@]34CCC(=O)O4)[C@H]12` [spironolactone], in test [2], the “reduced cardiac related mortality” value was 30% and the “reduced frequency of hospitalization” value was 33%.
As to `FC(F)(F)c1cccc(Cn2ccnc2C(c2ccccc2)c2ccccc2)c1` [Compound 1-8, 2-(diphenylmethyl)-1-[3-(trifluoromethyl)benzyl]-1H-imidazole], in test [1], the Ki was 410 nM.
Same read-out and setting: the value for `CC(c1cccc(I)c1)n1ccnc1C(c1ccccc1)c1ccccc1` (stereo not shown) [Compound 1-6, 2-(diphenylmethyl)-1-[1-(3-iodophenyl)ethyl]-1H-imidazole] was 2600 nM; that for `COc1cc(OC)cc(C(=O)Nc2cccc(Cn3ccnc3C(c3ccccc3)c3ccccc3)c2)c1` [Compound 1-19, N-(3-{[2-(diphenylmethyl)-1H-imidazol-1-yl]methyl}phenyl)-3,5-dimethoxybenzamide] was 302 nM.
Same read-out and setting: in the case of `FC(F)(F)c1cc(Cn2ccnc2C(c2ccccc2)c2ccccc2)cc(C(F)(F)F)c1` [Compound 1-11, 1-[3,5-bis(trifluoromethyl)benzyl]-2-(diphenylmethyl)-1H-imidazole] it was 1350 nM; in that of `CC(c1ccccc1)n1ccnc1C(c1ccccc1)c1ccccc1` (racemic) [Compound 1-5, 2-(diphenylmethyl)-1-(1-phenylethyl)-1H-imidazole], 2860 nM; in that of `Ic1cccc(Cn2ccnc2C(c2ccccc2)c2ccccc2)c1` [Compound 1-12, 2-(diphenylmethyl)-1-(3-iodobenzyl)-1H-imidazole], 287 nM.
On the same count and under the same terms, the value for `CC(c1cc(Cl)cc(Cl)c1)n1ccnc1C(c1ccccc1)c1ccccc1` (stereo not shown) [Compound 1-16, 1-[1-(3,5-dichlorophenyl)ethyl]-2-(diphenylmethyl)-1H-imidazole] was 298 nM.
Consider `COc1ccc(Br)cc1Cn1ccnc1C(c1ccccc1)c1ccccc1` [Compound 1-17, 1-(5-bromo-2-methoxybenzyl)-2-(diphenylmethyl)-1H-imidazole], for which, in test [1], the Ki was 499 nM.
Take `O=C(Nc1cccc(Cn2ccnc2C(c2ccccc2)c2ccccc2)c1)c1cc(Cl)cc(Cl)c1` [Compound 1-20, 3,5-dichloro-N-(3-{[2-(diphenylmethyl)-1H-imidazol-1-yl]methyl}phenyl)benzamide]: in test [1], the Ki amounted to 162 nM.
On the same count and under the same terms, in the case of `COc1ccc(Cn2ccnc2C(c2ccccc2)c2ccccc2)cc1` [Compound 1-7, 2-(diphenylmethyl)-1-(4-methoxybenzyl)-1H-imidazole] it was 2650 nM; in that of `CC(c1ccccc1)n1c(C(c2ccccc2)c2ccccc2)nc2ccccc21` (stereo not shown) [Compound 2-4, 2-(diphenylmethyl)-1-(1-phenylethyl)-1H-benzimidazole], 2090 nM.
On the same count and under the same terms, in the case of `CC(c1cc(C(F)(F)F)cc(C(F)(F)F)c1)n1ccnc1C(c1ccccc1)c1ccccc1` (stereo not shown) [Compound 1-10, 1-{1-[3,5-bis(trifluoromethyl)phenyl]ethyl}-2-(diphenylmethyl)-1H-imidazole] it was 1090 nM; in that of `c1ccc(Cn2c(C(c3ccccc3)c3ccccc3)nc3ccccc32)cc1` [Compound 2-3, 1-benzyl-2-(diphenylmethyl)-1H-benzimidazole], 964 nM; in that of `Clc1cc2c(cc1Cn1ccnc1C(c1ccccc1)c1ccccc1)OCO2` [Compound 1-18, 1-[(6-chloro-1,3-benzodioxol-5-yl)methyl]-2-(diphenylmethyl)-1H-imidazole], 1120 nM.
